Assay results reported in PubChem BioAssay (NCI).
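96-well plates; 48 h exposure; 5 concentrations. Endpoints by linear interpolation between flanking doses. Not reached: highest tested concentration assigned. At the TGI there is no net growth.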

Columns and labels:
Test in all cases: NCI-60 cell line screen, 48 h
[1] = system: SW-620 colon
[2] = system: SK-MEL-2 melanoma
[3] = system: HCT-116 colon
[4] = system: UO-31 renal
[5] = system: HT29 colon
[6] = system: LXFL 529 NSCLC
[7] = system: OVCAR-8 ovarian
[8] = system: NCI-H460 lung
[9] = system: LOX IMVI melanoma
[10] = system: DLD-1 colon
[11] = system: SN12C renal
[12] = system: EKVX NSCLC
[13] = system: NCI-H23 lung
[14] = system: HOP-18 NSCLC
[15] = system: A549 NSCLC
[16] = system: SF-268 CNS
[17] = system: NCI-H226 lung
[18] = system: UACC-257 melanoma
[19] = system: RPMI-8226 leukemia
[20] = system: MOLT-4 leukemia
[21] = system: HL-60(TB) leukemia
[22] = system: HOP-92 NSCLC
[23] = system: UACC-62 melanoma
[24] = system: CCRF-CEM leukemia
[25] = system: SF-295 CNS
[26] = system: SNB-75 CNS
[27] = system: MALME-3M melanoma
[28] = system: XF 498 CNS
[29] = system: OVCAR-5 ovarian
[30] = system: SF-539 CNS
[31] = system: HOP-62 NSCLC
[32] = system: HCT-15 colon
[33] = system: SNB-19 CNS
[34] = system: HCC-2998 colon
[35] = system: 786-0 renal
[36] = system: COLO 205 colon
[37] = system: SNB-78 CNS
[38] = system: SR leukemia
[39] = system: RXF-631 renal
[40] = system: M19-MEL melanoma
[41] = system: DMS 273 small cell lung
[42] = system: SK-MEL-28 melanoma
[43] = system: SK-OV-3 ovarian
[44] = system: TK-10 renal
[45] = system: ACHN renal
[46] = system: OVCAR-3 ovarian
[47] = system: U251 CNS
[48] = system: RXF 393 renal
[49] = system: KM20L2 colon
[50] = system: CAKI-1 renal
[51] = system: IGROV1 ovarian
[52] = system: NCI-H522 lung
[53] = system: K-562 leukemia
[54] = system: M14 melanoma
[55] = system: OVCAR-4 ovarian
[56] = system: DMS 114 small cell lung
[57] = system: KM12 colon
[58] = system: SK-MEL-5 melanoma

Work on Cc1cc2c(CC(=O)O)[nH]nc2c(C(=O)O)c1C yielded a TGI [1] greater than 100 µM, a TGI [2] greater than 100 µM and a TGI [3] greater than 100 µM. It also gave a TGI [4] greater than 100 µM, a TGI [5] greater than 100 µM and a TGI [6] greater than 100 µM. The TGI [7] was greater than 100 µM, the TGI [8] was greater than 100 µM and the TGI [9] was greater than 100 µM. The TGI [10] was greater than 100 µM, the TGI [11] was greater than 100 µM and the TGI [12] was greater than 100 µM. It also gave a TGI [13] greater than 100 µM, a TGI [14] greater than 100 µM and a TGI [15] greater than 100 µM. For the same compound, the TGI [16] was greater than 100 µM, the TGI [17] was greater than 100 µM and the TGI [18] was greater than 100 µM. The TGI [19] was greater than 100 µM, the TGI [20] was greater than 100 µM and the TGI [21] was greater than 100 µM. It also gave a TGI [22] greater than 100 µM, a TGI [23] greater than 100 µM and a TGI [24] greater than 100 µM. It also gave a TGI [25] greater than 100 µM, a TGI [26] greater than 100 µM and a TGI [27] greater than 100 µM. The TGI [28] was greater than 100 µM, the TGI [29] was greater than 100 µM and the TGI [30] was greater than 100 µM. For the same compound, the TGI [31] was greater than 100 µM, the TGI [32] was greater than 100 µM and the TGI [33] was greater than 100 µM. For the same compound, the TGI [34] was greater than 100 µM, the TGI [35] was greater than 100 µM and the TGI [36] was greater than 100 µM. The TGI [37] was greater than 100 µM, the TGI [38] was greater than 100 µM and the TGI [39] was greater than 100 µM. It also gave a TGI [40] greater than 100 µM, a TGI [41] greater than 100 µM and a TGI [42] greater than 100 µM. It also gave a TGI [43] greater than 100 µM, a TGI [44] greater than 100 µM and a TGI [45] greater than 100 µM. It also gave a TGI [46] greater than 100 µM, a TGI [47] greater than 100 µM and a TGI [48] greater than 100 µM. The TGI [49] was greater than 100 µM.
With Cc1nc(N)sc1C(=O)/C=C/c1ccc(/C=C/C(=O)c2sc(NC(=O)CCCCCCCCC(=O)Nc3nc(C)c(C(=O)/C=C/c4ccc(/C=C/C(=O)c5sc(N)nc5C)cc4)s3)nc2C)cc1 the TGI [1] was greater than 100 µM, the TGI [2] was greater than 100 µM and the TGI [3] was greater than 100 µM. For the same compound, the TGI [4] was greater than 100 µM, the TGI [5] was greater than 100 µM and the TGI [6] was greater than 100 µM. For the same compound, the TGI [7] was greater than 100 µM, the TGI [8] was greater than 100 µM and the TGI [9] was greater than 100 µM. It also gave a TGI [10] greater than 100 µM, a TGI [11] greater than 100 µM and a TGI [12] greater than 100 µM. The TGI [13] was greater than 100 µM, the TGI [50] was greater than 100 µM and the TGI [51] was greater than 100 µM. The TGI [14] was greater than 100 µM, the TGI [15] was greater than 100 µM and the TGI [16] was greater than 100 µM. It also gave a TGI [52] greater than 100 µM, a TGI [18] greater than 100 µM and a TGI [53] greater than 100 µM. It also gave a TGI [20] greater than 100 µM, a TGI [21] greater than 100 µM and a TGI [23] of 87.8 µM. It also gave a TGI [24] greater than 100 µM, a TGI [25] greater than 100 µM and a TGI [27] greater than 100 µM. For the same compound, the TGI [28] was greater than 100 µM, the TGI [29] was greater than 100 µM and the TGI [30] was greater than 100 µM. It also gave a TGI [31] greater than 100 µM, a TGI [32] greater than 100 µM and a TGI [33] greater than 100 µM. For the same compound, the TGI [34] was greater than 100 µM, the TGI [35] was greater than 100 µM and the TGI [36] was greater than 100 µM. For the same compound, the TGI [37] was greater than 100 µM, the TGI [38] was greater than 100 µM and the TGI [39] was greater than 100 µM. For the same compound, the TGI [40] was greater than 100 µM, the TGI [54] was greater than 100 µM and the TGI [41] was greater than 100 µM. For the same compound, the TGI [42] was greater than 100 µM, the TGI [43] was greater than 100 µM and the TGI [44] was greater than 100 µM. For the same compound, the TGI [45] was greater than 100 µM, the TGI [55] was greater than 100 µM and the TGI [46] was greater than 100 µM. For the same compound, the TGI [56] was greater than 100 µM, the TGI [57] was greater than 100 µM and the TGI [47] was greater than 100 µM. For the same compound, the TGI [48] was greater than 100 µM and the TGI [49] was greater than 100 µM.
With CC(C)=CC(C(O)c1ccccc1)S(=O)(=O)c1nccn1C (stereo not drawn) the TGI [58] was greater than 100 µM, the TGI [1] was greater than 100 µM and the TGI [2] was greater than 100 µM. The TGI [3] was greater than 100 µM, the TGI [4] was greater than 100 µM and the TGI [5] was greater than 100 µM. The TGI [6] was greater than 100 µM, the TGI [7] was greater than 100 µM and the TGI [8] was greater than 100 µM. It also gave a TGI [9] greater than 100 µM, a TGI [10] greater than 100 µM and a TGI [11] greater than 100 µM. It also gave a TGI [12] greater than 100 µM, a TGI [13] greater than 100 µM and a TGI [51] greater than 100 µM. The TGI [14] was greater than 100 µM, the TGI [15] was greater than 100 µM and the TGI [16] was greater than 100 µM. For the same compound, the TGI [52] was greater than 100 µM, the TGI [17] was greater than 100 µM and the TGI [18] was greater than 100 µM. The TGI [19] was greater than 100 µM, the TGI [53] was greater than 100 µM and the TGI [20] was greater than 100 µM. For the same compound, the TGI [21] was greater than 100 µM, the TGI [22] was greater than 100 µM and the TGI [23] was greater than 100 µM. For the same compound, the TGI [24] was greater than 100 µM, the TGI [25] was greater than 100 µM and the TGI [26] was greater than 100 µM. The TGI [27] was greater than 100 µM, the TGI [28] was greater than 100 µM and the TGI [29] was greater than 100 µM. The TGI [30] was greater than 100 µM, the TGI [31] was greater than 100 µM and the TGI [32] was greater than 100 µM. It also gave a TGI [33] greater than 100 µM, a TGI [34] greater than 100 µM and a TGI [35] greater than 100 µM. It also gave a TGI [36] greater than 100 µM, a TGI [38] greater than 100 µM and a TGI [39] greater than 100 µM. For the same compound, the TGI [40] was greater than 100 µM, the TGI [54] was greater than 100 µM and the TGI [41] was greater than 100 µM. For the same compound, the TGI [42] was greater than 100 µM, the TGI [43] was greater than 100 µM and the TGI [44] was greater than 100 µM. It also gave a TGI [45] greater than 100 µM, a TGI [55] greater than 100 µM and a TGI [46] greater than 100 µM. For the same compound, the TGI [56] was greater than 100 µM, the TGI [57] was greater than 100 µM and the TGI [47] was greater than 100 µM. For the same compound, the TGI [48] was greater than 100 µM and the TGI [49] was greater than 100 µM.
